Test results: patent publication US9545388B2, “Benzenetricarboxylic acid and methods of use” (GEORGETOWN UNIVERSITY, priority 2012, dated 2017)

Assays:
H1299 cells [1] = test: cell cycle analysis of H1299 cells under glucose restriction; format: cell-based, human; details: glucose restriction (2 mM Glucose), 1 mM BTA
Protocol: ATP (Panel B) and Oxygen consumption levels (Panel C) in cells cultured in 5 mM glucose and mock treated (DMSO, Control) or treated with BTA, or in cells expressing CIC or CIC-DN, 16 hours after treatments. […] The percentages of cells distributed in the G1-, S-, or G2-phases of the cells cycle are shown. Apoptotic cells are identified as the Sub-G1 (SG) population. […] Cells were stained with anti-Flag (green, panels 1 and 4) and anti-LC3 (red, panels 2 and 5) antibodies, and counterstained with DAPI. Merged images are shown in panels 3 and 6. The results of these immunofluorescence experiments were confirmed with cellular sub-fractionation experiments shown in Panel F. Cytoplasmic (c) and mitochondrial (m) fractions derived from naïve 293T cells (lanes 1,2) or 293T cells expressing CIC (lanes 3,4) or CIC-DN (lanes 5,6) or treated with BTA (lanes 7,8), were probed with anti-CIC, anti-LC3, or anti-mitofilin antibodies, as indicated. The two arrows in the LC3 blot indicate cytosolic (-I) or activated (-II) LC3 forms. […] All images shown were derived from the same autoradiogram at identical times of exposures, but lanes in between samples of interest were eliminated. […] The anti-mitofilin, anti-p62 (employed as a general autophagic marker), anti-CIC, or anti LC3 specific immuno-blots are shown.

mitochondrial mass = test: mitochondrial content by mitofilin and Nonyl-Acridine Orange (NOA); format: cell-based
Protocol: (§1) The concentration of citrate, lactate, isocitrate, and malate were assessed using specific kits from BioVision (Milpitas, Calif.). Cellular ATP levels were determined via the ATP kit (Promega; Fitchburg, Wis.), while oxygen consumption rates were measured using the BD oxygen biosensor systems (OBS) from BD Bioscience (Franklin Lakes, N.J.). Triplicate samples of 50,000 cells were seeded onto 96-well OBS plates. The number of cells was determined at each time point by sampling cells seeded into side-by-side plates. Fluorescence was measured from the bottom of the well every 24 h and measurements were normalized by subtracting the reading from the same well prior to the addition of the cells (blank). For measurement of reactive oxygen species (ROS), H2DCFDA was used (Invitrogen). Mitochondrial mass was assessed by using mitotracker green (Invitrogen), as per manufacturer instructions, or nonyl acridine orange at a final concentration of 300 nM, followed by analysis by flow cytometry. Mitochondrial membrane potential (MMP) was studied with the JC1 assay kit from Cayman Chemical (Ann Arbor, Mich.).

CIC = molecular target: T1, CIC (Homo sapiens, UniProt P53007); details: in vivo; cited from earlier work
T1 construct: citrate levels in cells expressing endogenous CIC (nM/well) were assessed in 293T cell lines harboring the pcDNA/TO vector; endogenous in cells; host or cells: 293T cells harbouring the empty pcDNA/TO vector

H1299 cells [2] = test: cell viability by trypan blue exclusion in H1299 cells; format: cell-based, human; details: 1 mM BTA, trypan blue exclusion (FIG. 2D)
Protocol: Negative values are due to subtraction of background rates. […] Cell viability was assessed with trypan blue exclusion.
Cells were grown in Dulbecco's modified Eagle's medium (DMEM, 5 mM glucose, with glutamine and pyruvate from Invitrogen; Carlsbad, Calif.) and supplemented with 10% fetal calf serum (FCS). Early passage cell lines or frozen pellets were used for screening of CIC expression levels (FIG. 1A). All the reagents for the study of complex I activity were purchased from Sigma-Aldrich (St. Louis, Mo.). The CIC specific shRNA vectors were purchased from Origene Technologies (Rockville, Md.). The vectors expressing human CIC untagged or Flag-Myc epitope tagged were also from Origene. The anti-CIC antibody was obtained from Santa Cruz Biotech (Santa Cruz, Calif.), employed at 1:1000 dilution in immuno-blot and at 1:100 in immuno-fluorescence; the anti-mHsp70 and anti-mitofilin antibody were from Novus Biological (Littleton, Colo.) employed at 1:500 in immuno-fluorescence and 1:1000 in immuno-blot; for the LC3 immuno-blot, a mixture of two antibodies was used each at 1:1000 dilution (Novus Biological). The LAMP-1 antibody was from Abcam (Cambridge, UK). The sequences of primers used were: the human cytochome c oxidase: forward: 5′-[…]-3′ (SEQ. ID NO: 1); Reverse:5′ […]-3′ (SEQ. ID NO: 2). […]

[3] = test system: breast cancer MDA-MB-231 cells; test: tumor xenograft, breast cancer MDA-MB-231 cells in nude mice; format: in vivo, female athymic balbc/nude mice; details: MDA-MB-231 xenograft, BTA 26 mg/kg intra-peritoneal three times a week, single agent
Protocol: (§2) To produce tumor xenografts, 5×10^6 cells were resuspended in PBS and injected subcutaneously in the flanks of female nude mice. […] Mice were pre-treated twice prior to the inoculation of tumor cell lines. Once detectable tumors started to form, their size was measured with a caliper in three dimensions. Serial measurements were made at two-three day intervals after the identification of the initial cellular mass to determine growth curves in vivo. Tumor volume was calculated using the formula for a prolate spheroid: volume=(4/3)×a^2b, where a is the width and b is the length. All animals were sacrificed when the tumors exceeded 1.5 cm. At the completion of experiments, tumors were excised, weighed and statistical significance of differences in tumor volume were made using two factor repeated measures analysis of variance followed by Fisher's last significant difference test for multiple comparisons.

MDA-MB-231 cells = test: dose dependent growth inhibition of BTA in MDA-MB-231 cells; format: cell-based, human; details: MBA-MD-231 cells, BTA dose response (FIG. 2B)
Protocol: Cells were grown in Dulbecco's modified Eagle's medium (DMEM, 5 mM glucose, with glutamine and pyruvate from Invitrogen; Carlsbad, Calif.) and supplemented with 10% fetal calf serum (FCS). Early passage cell lines or frozen pellets were used for screening of CIC expression levels (FIG. 1A). All the reagents for the study of complex I activity were purchased from Sigma-Aldrich (St. Louis, Mo.). The CIC specific shRNA vectors were purchased from Origene Technologies (Rockville, Md.). The vectors expressing human CIC untagged or Flag-Myc epitope tagged were also from Origene. The anti-CIC antibody was obtained from Santa Cruz Biotech (Santa Cruz, Calif.), employed at 1:1000 dilution in immuno-blot and at 1:100 in immuno-fluorescence; the anti-mHsp70 and anti-mitofilin antibody were from Novus Biological (Littleton, Colo.) employed at 1:500 in immuno-fluorescence and 1:1000 in immuno-blot; for the LC3 immuno-blot, a mixture of two antibodies was used each at 1:1000 dilution (Novus Biological). The LAMP-1 antibody was from Abcam (Cambridge, UK). The sequences of primers used were: the human cytochome c oxidase: forward: 5′-[…]-3′ (SEQ. ID NO: 1); Reverse:5′ […]-3′ (SEQ. ID NO: 2). The zebrafish NADH-dehydrogenase: forward: 5′-[…]-3′ (SEQ. ID NO: 3); reverse:5′ […]-3′ (SEQ. ID NO: 4). The zebrafish p53: forward: 5′-ACATGA […]-3′ (SEQ. ID NO: 5); Reverse: 5′ […] 3′ (SEQ. ID NO: 6).

[4] = test system: bladder cancer cells derived from T24 cells; test: tumor xenograft, bladder cancer cells derived from T24 in nude mice; format: in vivo, female athymic balbc/nude mice; details: BTA 26 mg/kg intra-peritoneal three times a week
Protocol: as §2

[5] = test system: lung cancer H1299 cell lines; test: tumor xenograft, lung cancer H1299 cells in nude mice; format: in vivo, female athymic balbc/nude mice; details: BTA 26 mg/kg intra-peritoneal three times a week
Protocol: as §2

lactate = lactate levels in treated cells; format: cell-based
Protocol: as §1

[6] = Protocol: To produce tumor xenografts, 5×10^6 cells were resuspended in PBS and injected subcutaneously in the flanks of female nude mice. For drug treatments, mice were randomized to receive either PBS or a PBS solution of BTA at a concentration 26 mg/kg which was administered via intra-peritoneal route three times a week. Mice were pre-treated twice prior to the inoculation of tumor cell lines. Once detectable tumors started to form, their size was measured with a caliper in three dimensions. Serial measurements were made at two-three day intervals after the identification of the initial cellular mass to determine growth curves in vivo. Tumor volume was calculated using the formula for a prolate spheroid: volume=(4/3)×a^2b, where a is the width and b is the length. All animals were sacrificed when the tumors exceeded 1.5 cm. At the completion of experiments, tumors were excised, weighed and statistical significance of differences in tumor volume were made using two factor repeated measures analysis of variance followed by Fisher's last significant difference test for multiple comparisons. The trial administration of BTA to explore its toxic effects, was conducted on 8 non immuno-compromised mice, randomized in two groups, and injected for five consecutive months. Animals were monitored once a week for the presence of signs of disease, particularly neurological disturbances or weight loss, and they were weighted periodically.
[7] = cell death by trypan blue exclusion in BTA-treated cells with or without rescue agents; format: cell-based
LC3 = test: immuno-fluorescence and cellular sub-fractionation for LC3 recruitment to mitochondria; format: cell-based
Protocol: ATP (Panel B) and Oxygen consumption levels (Panel C) in cells cultured in 5 mM glucose and mock treated (DMSO, Control) or treated with BTA, or in cells expressing CIC or CIC-DN, 16 hours after treatments. […] The percentages of cells distributed in the G1-, S-, or G2-phases of the cells cycle are shown. Apoptotic cells are identified as the Sub-G1 (SG) population. […] Cells were stained with anti-Flag (green, panels 1 and 4) and anti-LC3 (red, panels 2 and 5) antibodies, and counterstained with DAPI. Merged images are shown in panels 3 and 6. […]
Cells were grown in Dulbecco's modified Eagle's medium (DMEM, 5 mM glucose, with glutamine and pyruvate from Invitrogen; Carlsbad, Calif.) and supplemented with 10% fetal calf serum (FCS). […] The anti-CIC antibody was obtained from Santa Cruz Biotech (Santa Cruz, Calif.), employed at 1:1000 dilution in immuno-blot and at 1:100 in immuno-fluorescence; the anti-mHsp70 and anti-mitofilin antibody were from Novus Biological (Littleton, Colo.) employed at 1:500 in immuno-fluorescence and 1:1000 in immuno-blot; for the LC3 immuno-blot, a mixture of two antibodies was used each at 1:1000 dilution (Novus Biological). […]

[8] = test system: glucose-derived fatty acid (FA) synthesis; test: metabolism of D-[1,6-13C2] glucose into fatty acids via NMR mass spectrometry; format: cell-based
Source text: The molecular mechanisms by which CIC affects proliferation were examined. The function of CIC has been primarily linked to glucose-derived fatty acid (FA) synthesis, because of its role in citrate export. Therefore, the metabolism of D-[1,6-^13C2] glucose via NMR mass spectrometry was studied. […] Thus, depletion of lipids unlikely represents the only mechanism by which CIC inhibition affects tumor growth.

T1 sequence (P53007 14-311): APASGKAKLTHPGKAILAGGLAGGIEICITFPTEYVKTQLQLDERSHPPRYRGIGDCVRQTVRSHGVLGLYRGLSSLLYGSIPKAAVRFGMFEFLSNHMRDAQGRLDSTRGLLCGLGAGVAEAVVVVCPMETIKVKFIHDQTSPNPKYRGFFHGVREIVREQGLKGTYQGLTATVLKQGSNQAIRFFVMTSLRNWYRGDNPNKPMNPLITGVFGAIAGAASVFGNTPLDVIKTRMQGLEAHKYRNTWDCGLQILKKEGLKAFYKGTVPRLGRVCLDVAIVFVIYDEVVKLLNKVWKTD

SMILES: O=C(O)c1cccc(C(=O)O)c1C(=O)O [BTA, 1,2,3-benzenetricarboxylic acid]
- apoptosis (Sub-G1 population) (H1299 cells [1]): induction of apoptosis
- mitochondrial quantity (mitofilin) (mitochondrial mass; time course following BTA treatment (FIG. 5G)): reduction of mitochondrial quantity as a function of time
- CIC-dependent transport of citrate (CIC): suppresses CIC-dependent transport of citrate
- cell growth / viability (H1299 cells [2]): growth inhibition
- anti-cancer activity (tumor volume) [3]: exhibited anti-cancer activity
- proliferation rates (MDA-MB-231 cells): decreased proliferation rates in a dose-dependent manner
- anti-cancer activity (tumor volume) [4]: exhibited anti-cancer activity
- anti-cancer activity (tumor volume) [5]: exhibited anti-cancer activity
- levels of glucose-derived lactate (lactate): enhanced the levels of glucose-derived lactate
- evidence of illness or toxicity ([6]; mouse, in vivo): no evidence of illness or toxicity
- evidence of toxicity ([6]; mouse, in vivo): without showing any evidence of toxicity
- body weight ([6]; non immuno-compromised mice, BTA twice a week for five consecutive months): small but statistically significant reduction of the body weight
- viability of treated cells ([7]; cells treated with BTA): loss of viability
- LC3-II in the mitochondrial fraction (LC3; 293T cells treated with BTA, sub-fractionation immuno-blot (FIG. 5F lane 8)): enrichment of LC3-II in the mitochondria
- recruitment of active-lipidated LC3 and lysosomes to the mitochondria (LC3; cells treated with BTA): recruitment of the autophagic machinery
- total FA levels ([8]; 16 hours after BTA treatment): modestly reduced
- ability of cells to convert glucose into FA ([8]; D-[1,6-13C2] glucose): severely reduced the ability of cells to convert glucose into FA
- total FA levels ([8]; later time points after BTA treatment): increased

SMILES: Cn1cnc(N)c2ncnc1-2 [Compound 3MA, 3-Methyladenine, reference compound]
- mitochondrial amount (NOA) in BTA-treated cells (mitochondrial mass; 5 mM 3MA added to BTA-treated cells (FIG. 6A)): restored mitochondrial amount

SMILES: CC(=O)N[C@@H](CS)C(=O)O [NAC, N-acetyl-cysteine]
- prevention of loss of viability in cells treated with BTA ([7]; 5 mM methyl-pyruvate or 2 mM NAC added to BTA-treated cells (FIG. 5A)): partially prevented loss of viability

SMILES: CCCCCCCCCCCCCCCC(=O)O [palmitic acid]
- rescue of proliferation of BTA-treated cells ([7]; incubation of BTA-treated cells with palmitic acid): not sufficient to rescue proliferation
